Columns and labels:
[1] = Surfactant phase behavior study (cross-polarized microscopy); assay type: physicochemical; settings: room temperature (20-22° C.)
Experimental: Phase behavior is observed using an Olympus BH-2 cross-polarized microscope at 100-400× and room temperature (20° C. to 22° C.). The inventive monounsaturated sulfates and ethoxylate sulfates are compared with their saturated analogs, and in some cases, commercial surfactants.
Samples are prepared by diluting the most concentrated product gradually with deionized water. When the surfactant concentration approaches a phase transition, the concentration is varied at 2-4% intervals to estimate the phase boundary. The actives level reported in Table 15 for each phase boundary is within ±5% of the true boundary.
Samples are loaded between a microscope slide and cover glass and are allowed to equilibrate before observation. Microscopic texture is analyzed and used to determine the phase. For some samples, an AR 2000 rheometer (TA Instruments) is used to measure viscosity at 25° C. to further verify phase behavior.

[2] = Anionic emulsifier: emulsion stability testing of EW concentrate (modified ASTM E1116-98)
Experimental: Turbidity changes are noted and recorded.
A Mohr pipette is used to feed EW concentrate to each cylinder. Cylinders are stoppered and inverted ten times, then allowed to stand for 0.5, 1, and 24 h while recording stability at each time as type and % separation.
Spontaneity is recorded according to the following criteria: (1) poor: very thin emulsion cloud with major separation of oil droplets; (2) fair: thin emulsion cloud with minor separation of oil droplets; (3) good: thin emulsion cloud reaches the bottom of the cylinder without separation of any type; (4) excellent: thick emulsion cloud reaches the bottom of the cylinder without separation of any type.

[3] = Water-soluble herbicide formulation testing (standard dilution test, emulsion stability); assay type: physicochemical; parameters: key to Emulsion stability, mL separation, 24 h: Tr = trace; settings: 342 ppm water;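 also: diluted in a 50 mL Nessler cylinder held at 30 °C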
Experimental: Surfactant candidates for water soluble herbicide applications are examined as a replacement for the anionic, nonionic, or anionic/nonionic blend portion and compared to a known industry adjuvant standard for use in paraquat, a water soluble herbicide concentrate formulation. A standard dilution test is conducted whereby the concentrates are diluted in water to determine if solubility is complete.
The cylinder is stoppered and inverted ten times. Solubility is recorded as complete or incomplete. Cylinders are allowed to stand and the amount (in mL) and type of separation are recorded after 30 min., 1 h, 2 h, and 24 h. Results of the solubility testing appear in Table 3 below.
An eight to ten mole alkyl phenol ethoxylate surfactant (0.7 g) is added and vigorously mixed for 30 s. Test sample (0.7 g) is added and mixing resumes for 30 s.
Test sample (0.7 g) is added and vigorously mixed for 30 s. Sodium linear alkylbenzene sulfonate (“NaLAS,” 0.7 g) is added and mixing resumes for 30 s.

[4] = Adjuvant (anionic/nonionic) test sample

Compound | Estimated Phase Region: Hexagonal [1] | Estimated Phase Region: Lamellar [1] | Estimated Phase Region: Solid/gum/paste [1] | Estimated Phase Region: Unknown [1] | % Separation, 1 h ([2]; 34 ppm water) | % Separation, 24 h ([2]; 34 ppm water) | % Separation, 1 h ([2]; 1000 ppm water) | % Separation, 24 h ([2]; 1000 ppm water) | Estimated Phase Region: Isotropic Clear [1] | Emulsion stability, mL separation, 1 h [3, 4] | Emulsion stability, mL separation, 24 h [3, 4] | Emulsion stability, mL separation, 1 h ([3]; Anionic test sample) | Emulsion stability, mL separation, 24 h ([3]; Anionic test sample) | Emulsion stability, mL separation, 1 h ([3]; Nonionic test sample) | Emulsion stability, mL separation, 24 h ([3]; Nonionic test sample)
C12 Alcohol Ammonium Sulfate [A12-2] | 33-70 % actives | 70-83 % actives | 83-100 % actives | – | 4% | 4.2% | 2.5% | 3.2% | 0-33 % actives | – | – | – | – | – | –
1 Mole Ethoxylated C10 Alcohol, Sodium Sulfate [A10-6] | – | – | – | – | 4% | 4.9% | 3% | 3.2% | – | 0 mL | 0 mL | 0 mL | 0 mL | 0 mL | Tr
1 Mole Ethoxylated C10 Alcohol, Ammonium Sulfate [A10-5] | – | – | – | – | 3.8% | 4.3% | 2.8% | 3% | – | – | – | – | – | – | –
3 Mole Ethoxylated C12 Alcohol, Ammonium Sulfate [A12-8] | – | – | – | – | 3% | 4% | 3.7% | 3.9% | – | – | – | – | – | – | –
7 Mole Ethoxylated C12 Alcohol, Sodium Sulfate [A12-15] | – | – | – | – | 3.5% | 3.9% | 3.5% | 4% | – | 0 mL | 0 mL | 0 mL | 0 mL | 0 mL | 0 mL
1 Mole Ethoxylated C12 Alcohol, Ammonium Sulfate [A12-5] | – | – | – | – | 4% | 4.1% | 3% | 3.5% | – | – | – | – | – | – | –
7 Mole Ethoxylated C12 Alcohol, Ammonium Sulfate [A12-14] | – | – | – | – | 3.9% | 4.1% | 2.8% | 3.5% | – | – | – | – | – | – | –
5 Mole Ethoxylated C10 Alcohol, Sodium Sulfate [A10-12] | – | – | – | – | 3.6% | 4% | 3.4% | 4.3% | – | 0 mL | 0 mL | 0 mL | 0 mL | 0 mL | 0 mL
3 Mole Ethoxylated C10 Alcohol, Ammonium Sulfate [A10-8] | – | – | – | – | 3.5% | 3.9% | 3.5% | 3.5% | – | – | – | – | – | – | –

Now from value to compound, other results behind:

Estimated Phase Region: Hexagonal [1] | Estimated Phase Region: Lamellar [1] | Estimated Phase Region: Solid/gum/paste [1] | Estimated Phase Region: Unknown [1] | % Separation, 1 h ([2]; 34 ppm water) | % Separation, 24 h ([2]; 34 ppm water) | % Separation, 1 h ([2]; 1000 ppm water) | % Separation, 24 h ([2]; 1000 ppm water) | Estimated Phase Region: Isotropic Clear [1] | Compound | Emulsion stability, mL separation, 1 h [3, 4] | Emulsion stability, mL separation, 24 h [3, 4] | Emulsion stability, mL separation, 1 h ([3]; Anionic test sample) | Emulsion stability, mL separation, 24 h ([3]; Anionic test sample) | Emulsion stability, mL separation, 1 h ([3]; Nonionic test sample) | Emulsion stability, mL separation, 24 h ([3]; Nonionic test sample)
42-64 % actives | 64-80 % actives | 80-100 % actives | 0-42 % actives | – | – | – | – | – | CCCCCCCCCCOS(=O)(=O)O.N [sat. analog of A10-2, reference compound] | – | – | – | – | – | –
– | – | – | – | 4% | 3.8% | 3.5% | 4.2% | – | 15 Mole Ethoxylated C12 Alcohol, Ammonium Sulfate [A12-17] | – | – | – | – | – | –
24-60 % actives | 60-78 % actives | 78-100 % actives | – | – | – | – | – | 0-24 % actives | CCCCCCCCCCCCOCCOCCOCCOS(=O)(=O)[O-].[Na+] [sat. analog of A12-9, reference compound] | – | – | – | – | – | –
31-63 % actives | 63-74 % actives | 74-100 % actives | – | – | – | – | – | 0-31 % actives | CCCCCCCCCCCCOS(=O)(=O)O.N [sat. analog of A12-2, reference compound] | – | – | – | – | – | –

Reference: US11760889B2, “Unsaturated fatty alcohol derivatives from natural oil metathesis” (priority 2012, dated 2023)
